“And” between values parts separate entries of the source, which are not always exact repeats. Equal entries are not always repeated. Inconclusive results and toxic doses are left out. Rule for the calls: active = survival T/C of 150% or more; inactive = T/C below 125% in these data.
Test system: CD2F1 mice, L1210 leukemia ip, survival T/C
Experiment: NCI In Vivo Anticancer Drug Screen. Data for tumor model L1210 Leukemia (intraperitoneal) in CD2F1 (CDF1) mice
Conditions: higher = longer survival
How it was run: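 Vehicle-treated tumor-bearing mice served as controls (C) for compound-treated mice (T). Reported figure is T divided by C.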

[1] = endpoint: mean survival time, dose: 12.5 mg/kg/injection, schedule: Q01DX009 (ip), vehicle: saline with Tween-80
[2] = endpoint: mean survival time, dose: 25.0 mg/kg/injection, schedule: Q01DX009 (ip), vehicle: saline with Tween-80
[3] = endpoint: mean survival time, dose: 50.0 mg/kg/injection, schedule: Q01DX009 (ip), vehicle: saline with Tween-80
[4] = endpoint: mean survival time, dose: 100.0 mg/kg/injection, schedule: Q01DX001 (ip), vehicle: Klucel (hydroxypropylcellulose) (HPC)
[5] = endpoint: mean survival time, dose: 100.0 mg/kg/injection, schedule: Q04DX003 (ip), vehicle: saline with Tween-80
[6] = endpoint: mean survival time, dose: 200.0 mg/kg/injection, schedule: Q04DX003 (ip), vehicle: saline with Tween-80
[7] = endpoint: mean survival time, dose: 400.0 mg/kg/injection, schedule: Q04DX003 (ip), vehicle: saline with Tween-80
[8] = endpoint: mean survival time, dose: 100.0 mg/kg/injection, schedule: Q01DX009 (ip), vehicle: saline with Tween-80
[9] = endpoint: mean survival time, dose: 200.0 mg/kg/injection, schedule: Q01DX009 (ip), vehicle: saline with Tween-80
[10] = endpoint: mean survival time, dose: 400.0 mg/kg/injection, schedule: Q01DX009 (ip), vehicle: saline with Tween-80

Measured: T/C

CC(c1ccccc1)N1CCCOP1(=O)N(CCCl)CCCl (stereo unspecified)
inactive: endpoint: mean survival time, dose: 6.25 mg/kg/injection, schedule: Q01DX009 (ip), vehicle: other 103 % of control | endpoint: mean survival time, dose: 12.5 mg/kg/injection, schedule: Q01DX009 (ip), vehicle: other 103 % of control and 94 % of control | endpoint: mean survival time, dose: 25.0 mg/kg/injection, schedule: Q01DX009 (ip), vehicle: other 98 % of control and 94 % of control | endpoint: mean survival time, dose: 31.3 mg/kg/injection, schedule: Q01DX001 (ip), vehicle: other 98 % of control and 112 % of control and 103 % of control | endpoint: mean survival time, dose: 31.3 mg/kg/injection, schedule: Q01DX001 (ip), vehicle: saline + alcohol 101 % of control | endpoint: mean survival time, dose: 50.0 mg/kg/injection, schedule: Q01DX009 (ip), vehicle: other 109 % of control and 94 % of control | endpoint: mean survival time, dose: 62.5 mg/kg/injection, schedule: Q01DX001 (ip), vehicle: other 98 % of control and 100 % of control and 103 % of control | endpoint: mean survival time, dose: 62.5 mg/kg/injection, schedule: Q01DX001 (ip), vehicle: saline + alcohol 94 % of control | endpoint: mean survival time, dose: 100.0 mg/kg/injection, schedule: Q01DX009 (ip), vehicle: other 115 % of control and 96 % of control | endpoint: mean survival time, dose: 125.0 mg/kg/injection, schedule: Q01DX001 (ip), vehicle: other 113 % of control and 108 % of control and 100 % of control | endpoint: mean survival time, dose: 125.0 mg/kg/injection, schedule: Q01DX001 (ip), vehicle: saline + alcohol 97 % of control | endpoint: mean survival time, dose: 200.0 mg/kg/injection, schedule: Q01DX009 (ip), vehicle: other 100 % of control | endpoint: mean survival time, dose: 250.0 mg/kg/injection, schedule: Q01DX001 (ip), vehicle: other 107 % of control and 100 % of control and 103 % of control | endpoint: mean survival time, dose: 250.0 mg/kg/injection, schedule: Q01DX001 (ip), vehicle: saline + alcohol 97 % of control | endpoint: mean survival time, dose: 500.0 mg/kg/injection, schedule: Q01DX001 (ip), vehicle: other 100 % of control and 103 % of control | endpoint: mean survival time, dose: 500.0 mg/kg/injection, schedule: Q01DX001 (ip), vehicle: saline + alcohol 91 % of control

CC(=C(C#N)C#N)c1ccccc1
inactive: [1] 92 % of control | [2] 89 % of control | [3] 87 % of control

CCN1/C(=C/C(C)=C/c2sc3ccc4ccccc4c3[n+]2CC)Sc2ccc3ccccc3c21
inactive: endpoint: mean survival time, dose: 0.02 mg/kg/injection, schedule: Q01DX009 (ip), vehicle: Klucel (hydroxypropylcellulose) (HPC) 101 % of control | endpoint: mean survival time, dose: 0.03 mg/kg/injection, schedule: Q01DX009 (ip), vehicle: Klucel (hydroxypropylcellulose) (HPC) 100 % of control | endpoint: mean survival time, dose: 0.05 mg/kg/injection, schedule: Q01DX009 (ip), vehicle: Klucel (hydroxypropylcellulose) (HPC) 113 % of control and 97 % of control | endpoint: mean survival time, dose: 0.1 mg/kg/injection, schedule: Q01DX009 (ip), vehicle: Klucel (hydroxypropylcellulose) (HPC) 100 % of control and 110 % of control | endpoint: mean survival time, dose: 0.2 mg/kg/injection, schedule: Q01DX009 (ip), vehicle: Klucel (hydroxypropylcellulose) (HPC) 103 % of control and 104 % of control | endpoint: mean survival time, dose: 0.4 mg/kg/injection, schedule: Q01DX009 (ip), vehicle: Klucel (hydroxypropylcellulose) (HPC) 105 % of control and 107 % of control | endpoint: mean survival time, dose: 0.8 mg/kg/injection, schedule: Q01DX009 (ip), vehicle: Klucel (hydroxypropylcellulose) (HPC) 119 % of control and 104 % of control

O=C(c1ccccc1)C1C(c2ccccc2)C2(CCCCC2=O)C(c2ccccc2)CC1(O)c1ccccc1 (stereo unspecified)
inactive: [4] 96 % of control

O=C1CCCc2ccc(Cl)cc21
inactive: endpoint: mean survival time, dose: 100.0 mg/kg/injection, schedule: Q04DX003 (ip), vehicle: saline 96 % of control | endpoint: mean survival time, dose: 200.0 mg/kg/injection, schedule: Q04DX003 (ip), vehicle: saline 97 % of control | endpoint: mean survival time, dose: 400.0 mg/kg/injection, schedule: Q04DX003 (ip), vehicle: saline 108 % of control

CCc1nc(N)nc(N)c1-c1ccc(Cl)c(N=[N+]=[N-])c1
inactive: endpoint: median survival time, dose: 12.5 mg/kg/injection, schedule: Q01DX009 (ip), vehicle: distilled water + Tween-80 100 % of control | endpoint: median survival time, dose: 25.0 mg/kg/injection, schedule: Q01DX009 (ip), vehicle: distilled water + Tween-80 101 % of control and 102 % of control | endpoint: median survival time, dose: 50.0 mg/kg/injection, schedule: Q01DX009 (ip), vehicle: distilled water + Tween-80 102 % of control and 107 % of control | endpoint: median survival time, dose: 100.0 mg/kg/injection, schedule: Q01DX009 (ip), vehicle: distilled water + Tween-80 113 % of control (2×) and 96 % of control

CC(=O)/C(C#N)=C(\C)N
inactive: endpoint: mean survival time, dose: 50.0 mg/kg/injection, schedule: Q04DX002 (ip), vehicle: saline 103 % of control | endpoint: mean survival time, dose: 100.0 mg/kg/injection, schedule: Q04DX002 (ip), vehicle: saline 103 % of control | endpoint: mean survival time, dose: 200.0 mg/kg/injection, schedule: Q04DX002 (ip), vehicle: saline 103 % of control

O=C([O][Sb]([O]C(=O)C(Br)Br)([c]1ccccc1)([c]1ccccc1)[c]1ccccc1)C(Br)Br
inactive: [5] 95 % of control | [6] 89 % of control | [7] 95 % of control

CC1=NN(c2ccccc2)C(=O)C1N=Nc1ccccc1S(=O)(=O)O (stereo unspecified)
inactive: [8] 103 % of control | [5] 97 % of control | [9] 97 % of control | [6] 103 % of control | [10] 101 % of control | [7] 112 % of control

CCCCCCCCCCCCCCCCCCN1C(=O)C2C3CCC(O3)C2C1=O (stereo unspecified)
inactive: endpoint: mean survival time, dose: 25.0 mg/kg/injection, schedule: Q04DX002 (ip), vehicle: saline with Tween-80 98 % of control | endpoint: mean survival time, dose: 50.0 mg/kg/injection, schedule: Q04DX002 (ip), vehicle: saline with Tween-80 98 % of control | endpoint: mean survival time, dose: 100.0 mg/kg/injection, schedule: Q04DX002 (ip), vehicle: saline with Tween-80 94 % of control

O=C(COc1cccc(Cl)c1)NCc1ccccc1
inactive: [5] 99 % of control | [6] 96 % of control | [7] 99 % of control

O=C1CCCCC1(c1ccccc1)c1ccccc1
inactive: [8] 101 % of control | [5] 101 % of control | [9] 97 % of control | [6] 99 % of control | [10] 98 % of control | [7] 97 % of control

O=C(CC(SCCN1CCOCC1)c1ccccc1)c1ccc([N+](=O)[O-])cc1 (stereo unspecified)
inactive: [4] 93 % of control | endpoint: mean survival time, dose: 200.0 mg/kg/injection, schedule: Q01DX001 (ip), vehicle: Klucel (hydroxypropylcellulose) (HPC) 93 % of control

CC(=O)NCCN=Cc1ccccc1
inactive: [8] 97 % of control | [5] 95 % of control | [9] 95 % of control | [6] 95 % of control | [10] 97 % of control | [7] 97 % of control

C=CC(=O)NCNC(=O)C=C
inactive: endpoint: mean survival time, dose: 6.25 mg/kg/injection, schedule: Q01DX009 (ip), vehicle: saline 97 % of control | endpoint: mean survival time, dose: 12.5 mg/kg/injection, schedule: Q01DX009 (ip), vehicle: saline 101 % of control and 102 % of control | [2] 117 % of control | endpoint: mean survival time, dose: 25.0 mg/kg/injection, schedule: Q01DX009 (ip), vehicle: saline 97 % of control and 102 % of control | [3] 114 % of control | endpoint: mean survival time, dose: 50.0 mg/kg/injection, schedule: Q01DX009 (ip), vehicle: saline 117 % of control and 104 % of control | endpoint: mean survival time, dose: 100.0 mg/kg/injection, schedule: Q01DX009 (ip), vehicle: saline 117 % of control and 98 % of control | endpoint: mean survival time, dose: 200.0 mg/kg/injection, schedule: Q01DX009 (ip), vehicle: saline 96 % of control

O=C(O)COc1ccc(NC(=O)COc2ccccc2)cc1
inactive: endpoint: mean survival time, dose: 25.0 mg/kg/injection, schedule: Q01DX001 (ip), vehicle: saline with Tween-80 100 % of control | endpoint: mean survival time, dose: 50.0 mg/kg/injection, schedule: Q01DX001 (ip), vehicle: saline with Tween-80 97 % of control | endpoint: mean survival time, dose: 100.0 mg/kg/injection, schedule: Q01DX001 (ip), vehicle: saline with Tween-80 100 % of control

O/N=C\c1cc[n+](CC[n+]2ccc(/C=N/O)cc2)cc1
inactive: endpoint: mean survival time, dose: 25.0 mg/kg/injection, schedule: Q04DX002 (ip), vehicle: other 97 % of control | endpoint: mean survival time, dose: 50.0 mg/kg/injection, schedule: Q04DX002 (ip), vehicle: other 94 % of control | endpoint: mean survival time, dose: 100.0 mg/kg/injection, schedule: Q04DX002 (ip), vehicle: other 108 % of control

COC(COS(=O)(=O)c1ccc(Br)cc1)(c1ccccc1)c1ccccc1
inactive: [1] 95 % of control | [2] 88 % of control | [3] 88 % of control

Cc1ccc2c(C)cc(=O)[nH]c2c1
inactive: [5] 95 % of control | [6] 95 % of control | [7] 101 % of control

From PubChem BioAssay AID256 (DTP/NCI, 2004)
